{
  "source": "patent US7792665B2",
  "about": "“Method for designing a compound based on the three dimensional structure of phosphoinositide dependent protein kinase 1 (PDK1)” (Medical Research Council, priority 2002, dated 2010)",
  "biological_target": "T1, PDK1[T148A] (Homo sapiens, UniProt O15530, T148A)",
  "T1 sequence (O15530 1-556 T148A)": "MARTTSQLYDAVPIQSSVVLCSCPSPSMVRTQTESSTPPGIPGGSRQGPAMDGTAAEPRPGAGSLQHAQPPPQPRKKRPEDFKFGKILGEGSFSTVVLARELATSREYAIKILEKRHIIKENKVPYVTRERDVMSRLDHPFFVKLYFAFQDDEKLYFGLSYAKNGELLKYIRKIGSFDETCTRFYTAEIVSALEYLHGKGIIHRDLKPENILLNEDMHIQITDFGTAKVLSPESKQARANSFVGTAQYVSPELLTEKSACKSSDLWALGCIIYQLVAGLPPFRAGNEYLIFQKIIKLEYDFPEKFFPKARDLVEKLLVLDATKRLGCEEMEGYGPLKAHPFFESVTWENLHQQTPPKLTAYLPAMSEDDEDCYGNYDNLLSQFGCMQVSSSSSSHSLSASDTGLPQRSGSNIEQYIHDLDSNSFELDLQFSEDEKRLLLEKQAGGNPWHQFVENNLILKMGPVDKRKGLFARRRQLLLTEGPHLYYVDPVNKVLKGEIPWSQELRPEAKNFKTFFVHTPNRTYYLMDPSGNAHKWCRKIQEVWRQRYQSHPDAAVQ",
  "assay": "PDK1 catalytic activity towards T308tide, activation by peptides, PDK1[T148A]",
  "assay_type": "biochemical",
  "parameters": "made in house",
  "conditions": "T308tide substrate",
  "method": "C. Activation of the indicated forms of PDK1 by 56K-pHM and S6K-HM. PDK1 activity was measured using the peptide substrate (T308tide) in the presence of the indicated concentrations of 56K-pHM (closed circles) and S6K-HM (open circles) as described in the methods. Assays were performed in triplicate and similar results obtained in 2 separate experiments. The results are the average—SD for a single experiment.\nThe ability of wild type and mutant PDK1 to phosphorylate the synthetic peptide T308tide ([…] ([Biondi et al., 2000]) (SEQ ID NO:108) was carried out in 30 μl assays containing 100 ng of wild type or mutant PDK1, 50 mM Tris/HCl pH 7.5, 0.1% 13-mercaptoethanol, 10 mM MgCl2, 100 μM [32γ P]ATP (200 cpm/pmol), 0.5 μM microcystin-LR, 1 mM T308tide in the presence or absence of the indicated concentrations of the 56K-pHM peptide ([…](P)YVAPSV) (SEQ ID NO:104) or 56K-HM. peptide ([…]) (SEQ ID NO:105). After incubation for 10 min at 30° C., 25 μl of the resultant mixture was spotted into P81 phosphocellulose paper (2×2 cm) and the papers washed and analysed as described previously for assays of MAP kinase. Control assays were carried out in parallel in which either PDK1, or peptide substrate were omitted; these values were always less than 5% of the activity measured in the presence of these reagents. […]",
  "note": "Where a SMILES comes first, the peptide text is derived from it. [ ]: non-standard residue; d: D form. pT = C[C@@H](OP(=O)(O)O)[C@H](N)C(=O)O",
  "data": [
    {"smiles": "CC(C)C[C@H](NC(=O)[C@H](Cc1ccccc1)NC(=O)[C@@H](NC(=O)[C@H](CCC(N)=O)NC(=O)[C@H](CC(N)=O)NC(=O)[C@H](C)NC(=O)[C@H](CO)NC(=O)[C@H](CCC(=O)O)NC(=O)[C@@H](N)CO)C(C)C)C(=O)NCC(=O)N[C@@H](Cc1ccccc1)C(=O)N[C@H](C(=O)N[C@@H](Cc1ccc(O)cc1)C(=O)N[C@H](C(=O)N[C@@H](C)C(=O)N1CCC[C@H]1C(=O)N[C@@H](CO)C(=O)N[C@H](C(=O)O)C(C)C)C(C)C)[C@@H](C)OP(=O)(O)O", "note": "[S6K-pHM] (H-SESANQVFLGF[pT]YVAPSV-OH; N-terminus and C-terminus assumed)", "values": [
      {"measurement": "activation of PDK1[T148A]", "result": "activated similarly as wild type PDK1"}
    ]}
  ]
}
